Experimental data published in ChEMBL document CHEMBL5154829, “Discovery and biological evaluation of tanshinone derivatives as potent dual inhibitors of indoleamine 2, 3-dioxygenase 1 and tryptophan 2, 3-dioxygenase” (Eur J Med Chem, 2022).
Calls of active or inactive are those of the source. No cut-off for these calls is given here.

What was measured:
[1] = target: T1, Indoleamine 2,3-dioxygenase 1 (Homo sapiens, UniProt P14902); assay: Inhibition of recombinant human IDO1 assessed as reduction in N-formylkynurenine formation using L-tryptophan as substrate and measured after 15 mins
Target sequence in this assay (P14902 whole entry): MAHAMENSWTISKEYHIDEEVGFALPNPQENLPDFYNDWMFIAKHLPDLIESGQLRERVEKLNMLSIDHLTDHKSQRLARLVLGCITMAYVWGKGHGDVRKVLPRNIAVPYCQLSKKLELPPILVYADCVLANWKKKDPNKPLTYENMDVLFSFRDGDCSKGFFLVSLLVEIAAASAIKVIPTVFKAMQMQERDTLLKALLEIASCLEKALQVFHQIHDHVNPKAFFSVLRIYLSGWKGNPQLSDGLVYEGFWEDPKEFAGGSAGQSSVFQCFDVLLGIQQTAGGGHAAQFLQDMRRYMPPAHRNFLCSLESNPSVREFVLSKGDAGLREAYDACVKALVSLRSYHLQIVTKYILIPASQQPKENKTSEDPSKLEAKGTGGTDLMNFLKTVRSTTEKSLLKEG

[2] = target: T2, Tryptophan 2,3-dioxygenase (Homo sapiens, UniProt P48775); assay: Inhibition of recombinant human TDO assessed as reduction in N-formylkynurenine formation using L-tryptophan as substrate and measured after 15 mins
Target sequence in this assay (P48775 whole entry): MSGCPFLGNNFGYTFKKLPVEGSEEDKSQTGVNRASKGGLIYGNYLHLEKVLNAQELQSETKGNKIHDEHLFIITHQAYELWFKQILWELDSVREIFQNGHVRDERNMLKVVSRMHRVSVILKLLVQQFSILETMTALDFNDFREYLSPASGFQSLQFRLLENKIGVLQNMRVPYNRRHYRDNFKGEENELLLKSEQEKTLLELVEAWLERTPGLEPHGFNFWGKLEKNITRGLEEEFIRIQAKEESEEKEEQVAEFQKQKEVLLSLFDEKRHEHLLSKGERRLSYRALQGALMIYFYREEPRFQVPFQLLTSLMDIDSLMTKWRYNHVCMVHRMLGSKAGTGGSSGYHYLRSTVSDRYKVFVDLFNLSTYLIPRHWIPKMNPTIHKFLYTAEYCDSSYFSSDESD

[3] = target: T1, Indoleamine 2,3-dioxygenase 1; assay: Inhibition of IDO1 in IFNgamma-stimulated human HeLa cells assessed as reduction in kynurenine formation using L-tryptophan as substrate by absorbance based analysis; format: cell-based
Target sequence in this assay (P14902 whole entry): as the sequence (P14902 whole entry) above

[4] = target: T2, Tryptophan 2,3-dioxygenase; assay: Inhibition of TDO in human HEK293 cells assessed as reduction in kynurenine formation using L-tryptophan as substrate by absorbance based analysis; format: cell-based
Target sequence in this assay (P48775 whole entry): as the sequence (P48775 whole entry) above

[5] = target: T1, Indoleamine 2,3-dioxygenase 1; assay: Non-competitive inhibition of recombinant human IDO1 measured by surface plasmon resonance assay
Target sequence in this assay (P14902 whole entry): as the sequence (P14902 whole entry) above

[6] = target: T2, Tryptophan 2,3-dioxygenase; assay: Competitive inhibition of recombinant human TDO measured by surface plasmon resonance assay
Target sequence in this assay (P48775 whole entry): as the sequence (P48775 whole entry) above

[7] = target: T1, Indoleamine 2,3-dioxygenase 1; assay: Non-competitive inhibition of recombinant human IDO1 measured by UV/visible spectrophotometric method
Target sequence in this assay (P14902 whole entry, looked up): as the sequence (P14902 whole entry) above

[8] = target: T2, Tryptophan 2,3-dioxygenase; assay: Competitive inhibition of recombinant human TDO measured by UV/visible spectrophotometric method
Target sequence in this assay (P48775 whole entry, looked up): as the sequence (P48775 whole entry) above

HeLa [9] = assay: Induction of apoptosis in human HeLa cells assessed apoptotic cells at 10 uM measured after 24 hrs by Annexin V-FITC/PI based flow cytometry analysis; format: functional
HeLa [10] = assay: Induction of apoptosis in human HeLa cells assessed apoptotic cells at 5 uM measured after 6 hrs by Annexin V-FITC/PI based flow cytometry analysis; format: functional, cell-based
HeLa [11] = assay: Induction of apoptosis in human HeLa cells assessed apoptotic cells at 5 uM measured after 12 hrs by Annexin V-FITC/PI based flow cytometry analysis; format: functional
HeLa [12] = assay: Induction of apoptosis in IFNgamma-stimulated human HeLa cells assessed apoptotic cells at 5 uM measured after 12 hrs by Annexin V-FITC/PI based flow cytometry analysis; format: functional
HeLa [13] = assay: Induction of apoptosis in human HeLa cells assessed as decrease in Bcl-2 expression at 1 to 10 uM measured by western blot analysis; format: functional, cell-based; conditions: dose 1-10 µM
HeLa [14] = assay: Induction of apoptosis in human HeLa cells assessed as increase in Bax expression at 1 to 10 uM measured by western blot analysis; format: functional, cell-based; conditions: dose 1-10 µM
HeLa [15] = assay: Induction of apoptosis in human HeLa cells assessed as increase in Bax/Bcl-2 ratio at 1 to 10 uM measured by western blot analysis; format: functional, cell-based; conditions: dose 1-10 µM
[16] = Hemolytic activity in rat RBC at 500 uM incubated for 30 mins; format: toxicity, cell-based, Erythrocyte; conditions: rat red blood cells (erythrocytes), read-out: Activity
[17] = Cytotoxicity against human HEK-293T cells; format: toxicity, cell-based

Structure (SMILES)	IC50 [1]	IC50 [2]	IC50 [3]	IC50 [4]	other results
Cc1coc2c1c(=O)oc(=O)c1c3c(ccc12)C(C)(C)CCC3	> 10000 nM	> 10000 nM			
CC1(C)C(=O)CCc2c1ccc1c2C(=O)C(=O)c2c(CO)coc2-1	160 nM	200 nM	450 nM	3130 nM	
CC(=O)OCc1coc2c1C(=O)C(=O)c1c-2ccc2c1CC[C@H](O)C2(C)C	670 nM	2420 nM	2420 nM	2060 nM	
Cc1c[nH]c2c1C(=O)C(=O)c1c-2ccc2c1CCCC2(C)C	> 10000 nM	> 10000 nM			
Cc1coc2c1C(=O)C(=O)c1c-2ccc2c1C=CCC2(C)C	> 10000 nM	> 10000 nM			
COC(=O)c1coc2c1C(=O)C(=O)c1c-2ccc2c1C=CC(=O)C2(C)C	> 10000 nM	> 10000 nM			
Cc1coc2c1C(=O)C(=O)c1c-2ccc2c1CC[C@H](OS(C)(=O)=O)C2(C)C	810 nM	1210 nM	5100 nM	> 10000 nM	
CC(=O)Oc1c(OC(C)=O)c2c(C)coc2c2ccc3c(c12)CCCC3(C)C	> 10000 nM	> 10000 nM			
CC(=O)OCc1coc2c1C(=O)C(=O)c1c-2ccc2c1CCC(=O)C2(C)C	1730 nM	670 nM	810 nM	860 nM	
Cc1coc2c1C(=O)C(=O)c1c-2ccc2c1C(Br)CCC2(C)C (configuration not stated)	1500 nM	710 nM	> 10000 nM	8100 nM	
CC1(C)CCCc2c1ccc1c2C(=O)C(=O)c2c(CO)coc2-1 [PRZEWAQUINONE A]	1070 nM	450 nM	> 10000 nM	7180 nM	
CC1(C)C(=O)C=Cc2c1ccc1c2C(=O)C(=O)c2c(CF)coc2-1	420 nM	570 nM	650 nM	730 nM	
CC(=O)O[C@H]1CCc2c(ccc3c2C(=O)C(=O)c2c(CO)coc2-3)C1(C)C	750 nM	1840 nM	1870 nM	1910 nM	
Cc1coc2c1C(=O)C(=O)c1c-2ccc2c1CCC(=O)C2(C)C	360 nM	940 nM	> 10000 nM	> 10000 nM	
C[C@H]1COC2=C1C(=O)C(=O)c1c2ccc2c1CCCC2(C)C [CRYPTOTANSHINONE]	10000 nM	9800 nM			
CC1(C)C(=O)C=Cc2c1ccc1c2C(=O)C(=O)c2c(CCl)coc2-1	140 nM	110 nM	680 nM	340 nM	

Structure (SMILES)	IC50 [1]	IC50 [2]	IC50 [3]	IC50 [4]	other results
C[C@@H](C=O)C1=C(O)C(=O)c2c(ccc3c2CCCC3(C)C)C1=O	> 10000 nM	> 10000 nM			
Cc1coc2c1C(=O)C(=O)c1c-2ccc2c1C(=O)C(O)CC2(C)C (configuration not stated)	490 nM	1480 nM	> 10000 nM	> 10000 nM	
CC(=O)O[C@H]1CCc2c(ccc3c2C(=O)C(=O)c2c(C)coc2-3)C1(C)C	400 nM	370 nM	> 10000 nM	2800 nM	
CC1(C)C(=O)C=Cc2c1ccc1c2C(=O)C(=O)c2c(CO)coc2-1	220 nM	450 nM	2560 nM	1420 nM	
CCN(CC)C(=O)c1coc2c1C(=O)C(=O)c1c-2ccc2c1C=CC(=O)C2(C)C	3270 nM	9540 nM	> 10000 nM	> 10000 nM	
Cc1coc2c1C(=O)C(=O)c1c-2ccc2c1C(=O)C(O)=CC2(C)C	2880 nM	1010 nM	> 10000 nM	> 10000 nM	
Cc1coc2c1C(=O)C(=O)c1c-2ccc2c1CCCC2(C)C [TANSHINONE IIA]	> 10000 nM	> 10000 nM			
Cc1c(Br)oc2c1C(=O)C(=O)c1c-2ccc2c1CCCC2(C)C	> 10000 nM	> 10000 nM			
Cc1coc2c1C(=O)C(=O)c1c-2ccc2c1CC[C@H](O)C2(C)C	5120 nM	2700 nM	> 10000 nM	> 10000 nM	
CC1(C)c2ccc3c(c2CC[C@@H]1O)C(=O)C(=O)c1c(CO)coc1-3	590 nM	1010 nM	1670 nM	950 nM	
CC1(C)C(=O)C=Cc2c1ccc1c2C(=O)C(=O)c2c(C(=O)O)coc2-1	4570 nM	> 10000 nM	8550 nM	> 10000 nM	
Cc1coc2c1C(=O)C(=O)c1c-2ccc2c1C=CC(=O)C2(C)C	980 nM	960 nM	9330 nM	> 10000 nM	
CC(=O)OCc1coc2c1C(=O)C(=O)c1c-2ccc2c1C=CC(=O)C2(C)C	70 nM	160 nM	270 nM	1870 nM	Ki [5]: 230 nM; Ki [6]: 730 nM; inhibition [7]: Active; inhibition [8]: Active; Activity (HeLa [9]): 92.8%; Activity (HeLa [10]): Active; Activity (HeLa [11]): 39.9%; Activity (HeLa [12]): 68.6%; Activity (HeLa [13]): Active; Activity (HeLa [14]): Active; Activity (HeLa [15]): Active; hemolysis at 0.5 h, 500 µM [16]: 10%; IC50 [17]: > 10000 nM
CC1(C)C(=O)C=Cc2c1ccc1c2C(=O)C(=O)c2c(C=O)coc2-1	> 10000 nM	> 10000 nM			
NS(=O)(=O)NCCNc1nonc1C(=NO)Nc1ccc(F)c(Br)c1 [EPACADOSTAT]		16100 nM		10400 nM	
C[C@@H](CO)C1=C(O)C(=O)c2c(ccc3c2CCCC3(C)C)C1=O	> 10000 nM	> 10000 nM			
